Assay [1] concerns IRE1α-mediated XBP-1 mRNA splicing. In words: XBP-1 mRNA level and splicing in J558 cells (Northern blot, RT-PCR). The format is cell-based. Particulars: for XBP-1 mRNA splicing, agent alone (RT-PCR) / overall levels of XBP-1 RNA (Northern blot): J558 cells. Here is the method: (A) XBP-1 mRNA levels in ER stressed J558 cells treated with Tm for 4 hrs in the absence or presence of MG-132. Cells were pretreated with MG-132 for 1 hr before adding Tm. XBP-1 mRNA levels were determined by Northern blot analysis. […] (C) Effect of a panel of PIs on XBP-1 splicing. Cells were treated with Tm for 4 hrs in the absence or presence of MG-132 (10 μM), PS-341 (10 μM), Lactacystin (10 μM), ZL3VS (50 μM) or AdaAhxL3VS (50 μM), and XBP-1 mRNA splicing measured by RT-PCR analysis. (D) IRE-1α phosphorylation in NIH3T3 cells were treated with Tm as indicated after 2 hrs of pretreatment with MG-132 (10 μM).
Total RNA was prepared by using Trizol reagent, electrophoresed on 1.2% agarose, 6% formaldehyde gels and then transferred onto Genescreen Plus membrane, (NEN, Boston, Mass.). […] Probes for ERdj4 and p58^IPK were generated from cDNA excised from EST clones (ATCC, Manassas, Va.) using appropriate restriction enzymes (ERdj4, IMAGE: 1920927; p58^IPK, IMAGE:2646147).

A further assay relates to ERdj4 promoter. In words: ERdj4GL3 promoter luciferase reporter in MEF cells. In kind it is cell-based. As to conditions: wt MEF, Tm 1 μg/ml 16 hours or cotransfected XBP-1s. On the procedure:
(A) Wild type and XBP-1^−/− MEF cells were treated with 10 μg/ml Tm for the indicated time periods. Total RNAs were isolated and subjected to Northern blot analysis. The same blot was hybridized sequentially with BiP, CHOP, ERdj4, p58^ipk, ATF6α and Gla probes. The p58^ipk probe is probe A, from the 5′ end of the gene. Ethidium bromide staining of the gel before blotting is shown at the bottom for loading control. (B) All isoforms of p58^ipk are XBP-1 dependent. Here, Northern blot analysis was performed with probe B which recognizes sequences at the 3′ end of the gene. (C) XBP-1-dependent genes are also IRE1α-dependent. Northern blot analysis of RNA prepared from IRE 1α^−/− MEFs treated with Tm for varying time periods and assessed for expression of ERdj4 and p58^ipk. (D) The ERdj4GL3 reporter was transfected with or without XBP-1s plasmid into wild type and XBP-1^−/− MEF cells. Cells were treated with Tm at 1 μg/ml for 16 hours before harvesting as indicated. Luciferase activity was normalized to the Renilla activity. (E) Induction of BiP, ERdj4 and p58^ipk in primary B cells by LPS. B220+ primary B cells were isolated from spleens of wildtype or XBP-1^−/− RAG2^−/− lymphoid chimeras. Cells were untreated or stimulated for three days with 20 μg/ml LPS. Expression of BiP, ERdj4 and p58^ipk was determined by Northern blot analysis […]
For orientation: In a reporter assay the amount or activity of a reporter protein is the signal.

Where a SMILES comes first, the peptide text is derived from it. The star is where a group is joined. Cbz = O=C(OCc1ccccc1)*

On to `CC(C)C[C@@H](C=O)NC(=O)[C@H](CC(C)C)NC(=O)[C@H](CC(C)C)NC(=O)OCc1ccccc1` [MG-132] (Cbz-Leu-Leu-Leu-aldehyde), for which the “effect on Tm-induced XBP-1 mRNA splicing” value in assay [1] (J558, Tm 4 hrs, MG-132 10 μM, PS-341 10 μM, ZL3VS 50 μM, AdaAhxL3VS 50 μM) is on record as “suppressed by MG-132 in a dose dependent manner”. Further, in assay [1], the “XBP-1 mRNA splicing, agent alone (RT-PCR)” value is listed as “did not induce any XBP-1mRNA splicing” and the “overall levels of XBP-1 RNA (Northern blot)” value was “not significantly altered”.

Regarding tunicamycin [Tm], in assay [1], the “XBP-1 mRNA splicing, agent alone (RT-PCR)” value is “markedly induced XBP-1 mRNA splicing” and the “overall levels of XBP-1 RNA (Northern blot)” value is recorded as “not significantly altered”. The “ERdj4 promoter luciferase reporter induction” value in the assay with ERdj4 promoter was “induced by Tm as well as by cotransfected XBP-1s”.

B1: XBP-1s: vector encoding only the spliced form of murine XBP-1, a protein of 371 aa (protein)
chain: MVVVAAAPSAATAAPKVLLLSGQPASGGRALPLMVPGPRAAGSEASGTPQARKRQRLTHLSPEEKALRRKLKNRVAAQTARDRKKARMSELEQQVVDLEEENHKLQLENQLLREKTHGLVVENQELRTRLGMDTLDPDEVPEVEAKGSGVRLVAGSAESAAGAGPVVTSPEHLPMDSDTVASSDSESDILLGILDKLDPVMFFKCPSPESASLEELPEVYPEGPSSLPASLSLSVGTSSAKLEAINELIRFDHVYTKPLVLEIPSETESQTNVVVKIEEAPLSSSEEDHPEFIVSVKKEPLEDDFIPELGISNLLSSSHCLRPPSCLLDAHSDCGYEGSPSPFSDMSSPLGTDHSWEDTFANELFPQLISV
As to B1, the “ERdj4 promoter luciferase reporter induction” value in the assay on ERdj4 promoter is recorded as “induced by Tm as well as by cotransfected XBP-1s”.

(Values after patent US20040170622A1, “Methods and compositions for modulating XBP-1 activity” (President and Fellows of Harvard College, priority 2002, published 2004).)
